Measured values: ChEMBL document CHEMBL1121668, “(Phenylthio)phenylamine derivatives as potential antiinflammatory compounds” (J Med Chem, 1981)

Legend:
Rattus norvegicus [1] = assay: Compound is evaluated for antiinflammatory activity using carrageenan-induced paw edema method in rat at a dose 5 mg/kg ip after 2 hr; type: functional; conditions: route intraperitoneal
Rattus norvegicus [2] = assay: Compound is evaluated for antiinflammatory activity using carrageenan-induced paw edema method in rat at a dose 5 mg/kg ip after 1 hr; type: functional; conditions: route intraperitoneal
Rattus norvegicus [3] = assay: Compound is evaluated for antiinflammatory activity using carrageenan-induced paw edema method in rat at a dose 5 mg/kg ip after 3h; type: functional; conditions: route intraperitoneal
[4] = Lethal dose is determined in mice (iv); type: toxicity, organism-based; conditions: mouse, in vivo
[5] = Lethal dose is determined in mice (po); type: toxicity, organism-based; conditions: mouse, in vivo
Rattus norvegicus [6] = assay: Compound is evaluated for antiinflammatory activity using carrageenan-induced paw edema method in rat at a dose 500 mg/kg ip after 3h; type: functional; conditions: route intraperitoneal
Rattus norvegicus [7] = assay: Compound is evaluated for antiinflammatory activity using carrageenan-induced paw edema method in rat at a dose 500 mg/kg ip after 2 hr; type: functional; conditions: route intraperitoneal
Rattus norvegicus [8] = assay: Compound is evaluated for antiinflammatory activity using carrageenan-induced paw edema method in rat at a dose 500 mg/kg ip after 1 hr; type: functional; conditions: route intraperitoneal
Rattus norvegicus [9] = assay: Compound is evaluated for antiinflammatory activity using carrageenan-induced paw edema method in rat at a dose 200 mg/kg po after 2 hr; type: functional
Rattus norvegicus [10] = assay: Compound is evaluated for antiinflammatory activity using carrageenan-induced paw edema method in rat at a dose 200 mg/kg po after 1 hr; type: functional
Rattus norvegicus [11] = assay: Compound is evaluated for antiinflammatory activity using carrageenan-induced paw edema method in rat at a dose 200 mg/kg po after 3h; type: functional
Rattus norvegicus [12] = assay: Compound is evaluated for antiinflammatory activity using carrageenan-induced paw edema method in rat at a dose 25 mg/kg ip after 2 hr; type: functional; conditions: route intraperitoneal
Rattus norvegicus [13] = assay: Compound is evaluated for antiinflammatory activity using carrageenan-induced paw edema method in rat at a dose 25 mg/kg ip after 3h; type: functional; conditions: route intraperitoneal
Rattus norvegicus [14] = assay: Compound is evaluated for antiinflammatory activity using carrageenan-induced paw edema method in rat at a dose 25 mg/kg ip after 1 hr; type: functional; conditions: route intraperitoneal
Rattus norvegicus [15] = assay: Compound is evaluated for antiinflammatory activity using carrageenan-induced paw edema method in rat at a dose 30 mg/kg ip after 1 hr; type: functional; conditions: route intraperitoneal
Rattus norvegicus [16] = assay: Compound is evaluated for antiinflammatory activity using carrageenan-induced paw edema method in rat at a dose 30 mg/kg ip after 2 hr; type: functional; conditions: route intraperitoneal
Rattus norvegicus [17] = assay: Compound is evaluated for antiinflammatory activity using carrageenan-induced paw edema method in rat at a dose 30 mg/kg ip after 3h; type: functional; conditions: route intraperitoneal
Rattus norvegicus [18] = assay: Compound is evaluated for antiinflammatory activity using carrageenan-induced paw edema method in rat at a dose 10 mg/kg ip after 2 hr; type: functional; conditions: route intraperitoneal
Rattus norvegicus [19] = assay: Compound is evaluated for antiinflammatory activity using carrageenan-induced paw edema method in rat at a dose 10 mg/kg ip after 3h; type: functional; conditions: route intraperitoneal
Rattus norvegicus [20] = assay: Compound is evaluated for antiinflammatory activity using carrageenan-induced paw edema method in rat at a dose 10 mg/kg ip after 1 hr; type: functional; conditions: route intraperitoneal

CCN(CC)CC(=O)N(C)c1ccc(Sc2ccccc2)cc1 gave a Reduction (Rattus norvegicus [1]) of 50%, a Reduction (Rattus norvegicus [2]) of 53% and a Reduction (Rattus norvegicus [3]) of 52%. For the same compound, the LD50 [4] was 30 mg/kg and the LD50 [5] was 140 mg/kg.
With CN(C(=O)C1CC1)c1ccc(Sc2ccccc2)cc1 the Reduction (Rattus norvegicus [6]) was 37%, the Reduction (Rattus norvegicus [7]) was 48% and the LD50 [4] was > 1000 mg/kg. For the same compound, the Reduction (Rattus norvegicus [8]) was 57%.
For CN(C(=O)c1ccc(Cl)cc1)c1ccc(Sc2ccccc2)cc1, the Reduction (Rattus norvegicus [6]) was 48%, the Reduction (Rattus norvegicus [7]) was 60% and the LD50 [4] was > 1000 mg/kg. The Reduction (Rattus norvegicus [8]) was 65%.
Compound CN(C(=O)C1CN(c2ccccc2)C(=O)C1=O)c1ccc(Sc2ccccc2)cc1 (stereo unspecified) has a Reduction (Rattus norvegicus [9]) of 5%, a Reduction (Rattus norvegicus [10]) of 36% and a Reduction (Rattus norvegicus [11]) of 0%. The LD50 [5] was > 1000 mg/kg.
In the case of CC(C)N1CC(C(=O)N(C)c2ccc(Sc3ccccc3)cc2)C(=O)C1=O (stereo unspecified), the Reduction (Rattus norvegicus [9]) is reported as 26%, the Reduction (Rattus norvegicus [10]) is reported as 30% and the Reduction (Rattus norvegicus [11]) is reported as 18%. For the same compound, the LD50 [5] was > 1000 mg/kg.
In the case of CCN(CC)CC(=O)Nc1ccc(Sc2ccccc2)cc1, the Reduction (Rattus norvegicus [12]) is reported as 47%, the Reduction (Rattus norvegicus [13]) is reported as 22% and the LD50 [4] is reported as 45 mg/kg. The LD50 [5] was 275 mg/kg and the Reduction (Rattus norvegicus [14]) was 30%.
Work on CN(C(=O)CN1CCCCC1)c1ccc(Sc2ccccc2)cc1 yielded a Reduction (Rattus norvegicus [1]) of 29%, a Reduction (Rattus norvegicus [2]) of 40% and a Reduction (Rattus norvegicus [3]) of 34%. It also gave an LD50 [4] of 25 mg/kg.
With CC(=O)Oc1ccccc1C(=O)N(C)c1ccc(Sc2ccccc2)cc1 the Reduction (Rattus norvegicus [6]) was 32%, the Reduction (Rattus norvegicus [7]) was 55% and the LD50 [4] was 1000 mg/kg. The Reduction (Rattus norvegicus [8]) was 59%.
With CN1CC(C(=O)N(C)c2ccc(Sc3ccccc3)cc2)C(=O)C1=O (stereo unspecified) the Reduction (Rattus norvegicus [9]) was 0%, the Reduction (Rattus norvegicus [10]) was 36% and the Reduction (Rattus norvegicus [11]) was 0%. The LD50 [4] was > 1000 mg/kg.
CCN(CC)CC(=O)Nc1ccc(Sc2ccc(Cl)cc2)cc1 showed a Reduction (Rattus norvegicus [12]) of 74%, a Reduction (Rattus norvegicus [13]) of 72% and an LD50 [4] of 45 mg/kg. For the same compound, the LD50 [5] was 275 mg/kg and the Reduction (Rattus norvegicus [14]) was 56%.
Work on CCN(CC)CC(=O)Nc1ccccc1Sc1ccc(Cl)cc1 yielded a Reduction (Rattus norvegicus [15]) of 65%, a Reduction (Rattus norvegicus [16]) of 63% and a Reduction (Rattus norvegicus [17]) of 68%. The LD50 [4] was 55 mg/kg and the LD50 [5] was 35 mg/kg.
Work on CN(C)CC(=O)N(C)c1ccc(Sc2ccccc2)cc1 yielded a Reduction (Rattus norvegicus [1]) of 14%, a Reduction (Rattus norvegicus [2]) of 18% and a Reduction (Rattus norvegicus [3]) of 22%. The LD50 [4] was 50 mg/kg.
With CCN(CC)CC(=O)N(C)c1ccc(Sc2ccc(Cl)cc2)cc1 the Reduction (Rattus norvegicus [18]) was 15%, the Reduction (Rattus norvegicus [19]) was 0% and the LD50 [4] was 45 mg/kg. It also gave an LD50 [5] of 175 mg/kg and a Reduction (Rattus norvegicus [20]) of 13%.
For CN(C(=O)CN1CCOCC1)c1ccc(Sc2ccccc2)cc1, the Reduction (Rattus norvegicus [18]) was 45%, the Reduction (Rattus norvegicus [19]) was 43% and the LD50 [4] was 75 mg/kg. For the same compound, the Reduction (Rattus norvegicus [20]) was 55%.
Compound CCOC(=O)C1=C(Nc2ccc(Sc3ccccc3)cc2)C(=O)N(C(C)C)C1 has a Reduction (Rattus norvegicus [9]) of 30%, a Reduction (Rattus norvegicus [10]) of 22% and a Reduction (Rattus norvegicus [11]) of 30%. For the same compound, the LD50 [5] was > 1000 mg/kg.
Compound CN(C(=O)CN1CCCC1)c1ccc(Sc2ccccc2)cc1 has a Reduction (Rattus norvegicus [1]) of 18%, a Reduction (Rattus norvegicus [2]) of 18% and a Reduction (Rattus norvegicus [3]) of 23%. It also gave an LD50 [4] of 35 mg/kg.
With CN1CCN(CC(=O)N(C)c2ccc(Sc3ccccc3)cc2)CC1 the Reduction (Rattus norvegicus [18]) was 30%, the Reduction (Rattus norvegicus [19]) was 38% and the LD50 [4] was 75 mg/kg. The Reduction (Rattus norvegicus [20]) was 45%.
With COc1ccc2c(c1)c(CC(=O)O)c(C)n2C(=O)c1ccc(Cl)cc1 [INDOMETHACIN] the Reduction (Rattus norvegicus [18]) was 65%, the Reduction (Rattus norvegicus [19]) was 67% and the Reduction (Rattus norvegicus [20]) was 61%.
